From ChEMBL document CHEMBL1201862, “PubChem BioAssay data set” (2004)
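These data come from cells grown in 96-well plates and exposed to compound for 48 hours at five concentrations. Here, GI50 denotes the concentration required for 50% inhibition of growth.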 The source made the active and inactive calls. No stated cut-off is given here; in the data, active = GI50 up to about 1.1 µM and inactive = higher.

What was measured:
Test in all cases: growth of human tumour cells (NCI), 48 h
SF-295 = system: SF-295
MOLT-4 = system: MOLT-4
A498 = system: A498
NCI-H23 = system: NCI-H23
SW-620 = system: SW-620
UO-31 = system: UO-31
MDA-N = system: MDA-N
LOX IMVI = system: LOX IMVI
HT-29 = system: HT-29
HOP-62 = system: HOP-62
786-0 = system: 786-0
RXF 393 = system: RXF 393
MDA-MB-231 = system: MDA-MB-231
UACC-257 = system: UACC-257
SK-MEL-5 = system: SK-MEL-5
Malme-3M = system: Malme-3M
SNB-75 = system: SNB-75
SK-MEL-28 = system: SK-MEL-28
OVCAR-3 = system: OVCAR-3

Compound	GI50 (SF-295)	GI50 (MOLT-4)	GI50 (A498)	GI50 (NCI-H23)	GI50 (SW-620)	GI50 (UO-31)	GI50 (MDA-N)	GI50 (LOX IMVI)	GI50 (HT-29)	GI50 (HOP-62)	GI50 (786-0)	GI50 (RXF 393)	GI50 (MDA-MB-231)	GI50 (UACC-257)	GI50 (SK-MEL-5)	GI50 (Malme-3M)	GI50 (SNB-75)	GI50 (SK-MEL-28)	GI50 (OVCAR-3)
c1ccc(C(=NNc2nc3ccccc3o2)c2ccccn2)nc1	0.121 µM (active)	< 0.0105 µM (active)	0.182 µM (active)	0.0489 µM (active)	0.024 µM (active)	0.0685 µM (active)	0.191 µM (active)	0.122 µM (active)	< 0.0164 µM (active)	0.0408 µM (active)	< 0.0254 µM (active)	0.158 µM (active)	0.055 µM (active)	0.0494 µM (active)	0.0818 µM (active)	0.0182 µM (active)			
CCC(=O)Nc1ccc(/N=N/N(C)C)cc1		6.73 µM (inactive)	> 100 µM (inactive)	7.26 µM (inactive)	> 100 µM (inactive)	> 100 µM (inactive)		50.9 µM (inactive)	> 100 µM (inactive)	> 100 µM (inactive)	> 100 µM (inactive)	> 100 µM (inactive)	> 100 µM (inactive)	> 100 µM (inactive)	53.7 µM (inactive)	2.13 µM (inactive)	> 100 µM (inactive)	> 100 µM (inactive)	
COc1ccc(S(=O)(=O)O)cc1NS(=O)(=O)c1ccc(C)cc1	> 100 µM (inactive)	> 100 µM (inactive)	> 100 µM (inactive)	> 100 µM (inactive)	> 100 µM (inactive)	> 100 µM (inactive)	> 100 µM (inactive)	> 100 µM (inactive)	> 100 µM (inactive)	> 100 µM (inactive)	> 100 µM (inactive)		> 100 µM (inactive)	> 100 µM (inactive)	> 100 µM (inactive)		> 100 µM (inactive)	> 100 µM (inactive)	> 100 µM (inactive)
COc1ccc(-c2cc(-c3ccccc3)n(C3OC(COC(C)=O)C(OC(C)=O)C(OC(C)=O)C3OC(C)=O)c(=S)c2C#N)cc1 (stereo not drawn)	5.47 µM (inactive)	17.9 µM (inactive)		19.3 µM (inactive)	13.9 µM (inactive)	9.08 µM (inactive)	8.05 µM (inactive)	4.51 µM (inactive)	6.28 µM (inactive)	3.81 µM (inactive)	3.44 µM (inactive)	11.2 µM (inactive)	4.79 µM (inactive)		6.71 µM (inactive)	5.87 µM (inactive)	6.38 µM (inactive)	12.6 µM (inactive)	11.4 µM (inactive)
O=C1/C(=C/c2ccccc2)Oc2cc(O)ccc21	> 100 µM (inactive)	> 100 µM (inactive)		> 100 µM (inactive)	> 100 µM (inactive)	> 100 µM (inactive)	> 100 µM (inactive)		> 100 µM (inactive)	> 100 µM (inactive)	> 100 µM (inactive)	> 100 µM (inactive)	> 100 µM (inactive)	> 100 µM (inactive)	> 100 µM (inactive)		> 100 µM (inactive)	> 100 µM (inactive)	> 100 µM (inactive)
CC/C=C/C(=O)CC(O)(C(F)(F)F)C(F)(F)F	> 100 µM (inactive)	> 100 µM (inactive)	22.5 µM (inactive)	> 100 µM (inactive)	> 100 µM (inactive)	54 µM (inactive)		> 100 µM (inactive)	> 100 µM (inactive)	> 100 µM (inactive)	> 100 µM (inactive)	> 100 µM (inactive)	> 100 µM (inactive)	> 100 µM (inactive)	> 100 µM (inactive)	> 100 µM (inactive)	> 100 µM (inactive)	> 100 µM (inactive)	
C=C1CC(COc2ccc3c(C)c(C)c(=O)oc3c2C)(c2ccccc2)OC1=O (stereo not drawn)	5.66 µM (inactive)	1.11 µM (active)	2.7 µM (inactive)	2.04 µM (inactive)	1.22 µM (inactive)	2.77 µM (inactive)	1.87 µM (inactive)	1 µM (active)	1.53 µM (inactive)	6.22 µM (inactive)	1.41 µM (inactive)		2.72 µM (inactive)	0.531 µM (active)	1.59 µM (inactive)	1.62 µM (inactive)	2.67 µM (inactive)	2.07 µM (inactive)	2.88 µM (inactive)
CNC(=O)/C(C#N)=C(\N)N1CCCC1		> 100 µM (inactive)	> 100 µM (inactive)	> 100 µM (inactive)	> 100 µM (inactive)	> 100 µM (inactive)	> 100 µM (inactive)		> 100 µM (inactive)	> 100 µM (inactive)	> 100 µM (inactive)	> 100 µM (inactive)	> 100 µM (inactive)		> 100 µM (inactive)	> 100 µM (inactive)		> 100 µM (inactive)	> 100 µM (inactive)
Cc1ccc(N2C(=O)C(O)=C(C(=O)C(C)(C)C)C2c2ccc([N+](=O)[O-])cc2)cc1 (stereo not drawn)	20.9 µM (inactive)	7.26 µM (inactive)	29.3 µM (inactive)	15.4 µM (inactive)		29.6 µM (inactive)	26 µM (inactive)	14.9 µM (inactive)	17.6 µM (inactive)	17.3 µM (inactive)	16.3 µM (inactive)		18.9 µM (inactive)	15.8 µM (inactive)	15.8 µM (inactive)	19 µM (inactive)		21.5 µM (inactive)	19.6 µM (inactive)
